Source: patent US7361743B2 (Pfizer Inc, priority 2004, dated 2008)
≈ marks a conversion by molar mass, not a printed value.

Columns and labels:
Bacteroides fragilis = experiment: Susceptibility testing, NCCLS microdilution MIC (anaerobe); type: cell-based; details: Bacteroides fragilis, ATCC25285; B. fragilis ATCC 25285; Example A′; read-out: MIC B. fragilis
[1] = tested on: E. coli transcription/translation (bacterial protein synthesis, E. coli S30 extract); experiment: In vitro inhibition of E. coli transcription and translation assay (TT), cell-free; type: biochemical; details: for IC50: cell-free E. coli S30 extract; for In vitro inhibition of E. coli transcription and translation compared with literature azepine compound VIII(18): cell-free TT assay, comparison in words
Protocol: Inhibition of bacterial protein synthesis was assayed in a cell-free E. coli transcription/translation assay.
Stock solutions of compounds were prepared at 10 mg/mL in DMSO. The assay contained less or equal to 1% (v/v) final concentration of DMSO. Three-fold serial dilutions were prepared in assay buffer at 6-fold final concentration in 96 well microtiter plate.
All vials, tubes and microtiter plates are RNase free. The Mix was freshly prepared with 10 μl H2O, 10 μl AA-M, 10 μl AA-L, 80 μl Premix and 50 μl ES30 extract. The assay was performed in a 96-well plate. Five microliters of compounds at various concentrations (6-fold final assay concentration) were preincubated with 20 μl of the mix for 5 min at room temperature. The reaction started with addition of 5 μl of plasmid (˜0.1 mg/mL pGEMBGAL), and kept at 37° C. for 1 h followed by the addition of 150 μl of OPNG solution (4 mg/mL OPNG in 0.1M NaPi, pH 7.5, 1 mM MgCl2 and 2 mM DTT). 150 μl of the reaction was transferred to a ½-area plate and increase in absorption at OD420 nm was monitored for 10 min using a Spectramax plate reader (Molecular Devices). The slope of absorption change over time is corresponding to the pathway activity.
The E. coli S30 Extract for circular DNA kit was purchased from Promega. Original plasmid pGEMBGAL was obtained from Promega and amplified via Maxiprep in house. 2-Nitrophenyl β-D-galactopyranoside was obtained from Sigma. Clindamycin HCl (USP) was purchased from Spectrum.
The inhibition are expressed as percent of control activity (without inhibitor) which is calculated according to equation (1): Inhibition %=(compound slope-blank slope)/(control slope-blank slope)*100 (1)
All IC50s were determined by fitting the experimental data to equation (2) using software DeltaGraph (DeltaPoint Inc.): Y=Y0/(1+(X/IC50)[…])+c (2)
Where Y: activity at given inhibitor concentration; Y0: activity without inhibitor; X: inhibitor concentration; d: slope; c: constant.
Lincosamides inhibit bacterial growth through binding to the bacterial 50S ribosome, thus inhibiting peptide bond formation. The transcription/translation assay provides a screening tool to measure inhibition of bacterial protein synthesis pathway at the target level without the complication of differences in membrane permeability.

Staphylococcus aureus = experiment: Susceptibility testing, NCCLS microdilution MIC; type: cell-based; details: ATCC25923, S. aureus ATCC 25923, Example A′, read-out: MIC S. aureus
Enterococcus faecalis = experiment: Susceptibility testing, NCCLS microdilution MIC; type: cell-based; details: Enterococcus faecalis, ATCC29212; E. faecalis ATCC 29212; Example A′; read-out: MIC E. faecalis
Haemophilus influenzae = experiment: Susceptibility testing, NCCLS microdilution MIC; type: cell-based; details: Haemophilus influenzae, ATCC31517; H. influenzae ATCC 31517; Example A′; read-out: MIC H. influenzae

Structure (SMILES)	MIC (Bacteroides fragilis) [µg/mL]	IC50 [1] [nM]	In vitro inhibition of E. coli transcription and translation compared with literature azepine compound VIII(18) [1]	MIC (Staphylococcus aureus) [µg/mL]	MIC (Enterococcus faecalis) [µg/mL]	MIC (Haemophilus influenzae) [µg/mL]
CS[C@H]1O[C@H]([C@H](NC(=O)C2CC[C@H](CCCCO)CCN2)[C@H](C)Cl)[C@H](O)[C@H](O)[C@H]1O (stereo in doubt) [Example 1′, 5-(4-Hydroxy-butyl)-azepane-2-carboxylic acid [2-chloro-1-(3,4,5-trihydroxy-6-methylsulfanyl-tetrahydro-pyran-2-yl)-propyl]-amide]	8 (≈ 17.1 µM)	530	markedly superior	0.25 (≈ 0.533 µM)	1 (≈ 2.13 µM)	0.5 (≈ 1.07 µM)
CS[C@H]1O[C@H]([C@H](NC(=O)C2CC[C@H](CCCO)CCN2)[C@H](C)Cl)[C@H](O)[C@H](O)[C@H]1O (stereo in doubt) [Example 2′, 5-(3-Hydroxy-propyl)-azepane-2-carboxylic acid [2-chloro-1-(3,4,5-trihydroxy-6-methylsulfanyl-tetrahydro-pyran-2-yl)-propyl]-amide]	4 (≈ 8.79 µM)	400	markedly superior	0.5 (≈ 1.1 µM)	1 (≈ 2.2 µM)	0.5 (≈ 1.1 µM)
CS[C@H]1O[C@H]([C@H](NC(=O)C2CC[C@H](CCCCC#N)CCN2)[C@H](C)Cl)[C@H](O)[C@H](O)[C@H]1O (stereo in doubt) [Example 8′, 5-(4-Cyano-butyl)-azepane-2-carboxylic acid [2-chloro-1-(3,4,5-trihydroxy-6-methylsulfanyl-tetrahydro-pyran-2-yl)-propyl]-amide]	1 (≈ 2.09 µM)	190	markedly superior	0.125 (≈ 0.261 µM)	0.06 (≈ 0.126 µM)	0.5 (≈ 1.05 µM)
CS[C@H]1O[C@H]([C@H](NC(=O)C2CC[C@H](CCCn3ccnn3)CCN2)[C@H](C)Cl)[C@H](O)[C@H](O)[C@H]1O (stereo in doubt) [Example 9′, 5-(3-[1,2,3]Triazol-1-yl-propyl)-azepane-2-carboxylic acid [2-chloro-1-(3,4,5-trihydroxy-6-methylsulfanyl-tetrahydro-pyran-2-yl)-propyl]-amide]	> 8	280	markedly superior	0.5 (≈ 0.988 µM)	4 (≈ 7.9 µM)	2 (≈ 3.95 µM)
CS[C@H]1O[C@H]([C@H](NC(=O)[C@@H]2CC[C@H](CCC(F)F)CCN2)[C@H](C)Cl)[C@H](O)[C@H](O)[C@H]1O [Example 10′, 5-(3,3-Difluoro-propyl)-azepane-2-carboxylic acid [2-chloro-1-(3,4,5-trihydroxy-6-methylsulfanyl-tetrahydro-pyran-2-yl)-propyl]-amide]	1 (≈ 2.11 µM)	530	markedly superior	0.06 (≈ 0.126 µM)	0.125 (≈ 0.263 µM)	0.5 (≈ 1.05 µM)
CS[C@H]1O[C@H]([C@H](NC(=O)[C@@H]2CC[C@H](CCCC(F)F)CCN2)[C@H](C)Cl)[C@H](O)[C@H](O)[C@H]1O [Example 11′, 5-(4,4-Difluoro-butyl)-azepane-2-carboxylic acid [2-chloro-1-(3,4,5-trihydroxy-6-methylsulfanyl-tetrahydro-pyran-2-yl)-propyl]-amide]	1 (≈ 2.04 µM)	250	markedly superior	0.06 (≈ 0.123 µM)	0.06 (≈ 0.123 µM)	0.25 (≈ 0.511 µM)
COCCCC[C@@H]1CCN[C@H](C(=O)N[C@@H]([C@H]2O[C@H](SC)[C@H](O)[C@@H](O)[C@H]2O)[C@H](C)Cl)CC1 [Example 12′, 5-(4-Methoxy-butyl)-azepane-2-carboxylic acid [2-chloro-1-(3,4,5-trihydroxy-6-methylsulfanyl-tetrahydro-pyran-2-yl)-propyl]-amide]	2 (≈ 4.14 µM)	290	markedly superior	0.06 (≈ 0.124 µM)	0.5 (≈ 1.04 µM)	0.5 (≈ 1.04 µM)
CS[C@H]1O[C@H]([C@H](NC(=O)[C@@H]2CC[C@H](CCCCOc3cccnc3)CCN2)[C@H](C)Cl)[C@H](O)[C@H](O)[C@H]1O [Example 14′, 5-[4-(Pyridin-3-yloxy)-butyl]-azepane-2-carboxylic acid [2-chloro-1-(3,4,5-trihydroxy-6-methylsulfanyl-tetrahydro-pyran-2-yl)-propyl]-amide]	8 (≈ 14.6 µM)	200	markedly superior	0.125 (≈ 0.229 µM)	0.5 (≈ 0.916 µM)	1 (≈ 1.83 µM)
CS[C@H]1O[C@H]([C@H](NC(=O)[C@@H]2CC[C@H](CCCOc3cccnc3)CCN2)[C@H](C)Cl)[C@H](O)[C@H](O)[C@H]1O [Example 15′, 5-[3-(Pyridin-3-yloxy)-propyl]-azepane-2-carboxylic acid [2-chloro-1-(3,4,5-trihydroxy-6-methylsulfanyl-tetrahydro-pyran-2-yl)-propyl]-amide]	> 8	1100	markedly superior	0.125 (≈ 0.235 µM)	0.5 (≈ 0.94 µM)	2 (≈ 3.76 µM)
COCc1cn(CCC[C@@H]2CCN[C@H](C(=O)N[C@@H]([C@H]3O[C@H](SC)[C@H](O)[C@@H](O)[C@H]3O)[C@H](C)Cl)CC2)nn1 [Example 16′, 5-[3-(4-Methoxymethyl-[1,2,3]triazol-1-yl)-propyl]-azepane-2-carboxylic acid [2-chloro-1-(3,4,5-trihydroxy-6-methylsulfanyl-tetrahydro-pyran-2-yl)-propyl]-amide]	> 8	440	markedly superior	2 (≈ 3.64 µM)	> 8	2 (≈ 3.64 µM)
CCCc1cn(CCC[C@@H]2CCN[C@H](C(=O)N[C@@H]([C@H]3O[C@H](SC)[C@H](O)[C@@H](O)[C@H]3O)[C@H](C)Cl)CC2)nn1 [Example 17′, 5-[3-(4-Propyl-[1,2,3]triazol-1-yl)-propyl]-azepane-2-carboxylic acid [2-chloro-1-(3,4,5-trihydroxy-6-methylsulfanyl-tetrahydro-pyran-2-yl)-propyl]-amide]	> 8	750	markedly superior	1 (≈ 1.82 µM)	8 (≈ 14.6 µM)	4 (≈ 7.3 µM)
CS[C@H]1O[C@H]([C@H](NC(=O)[C@@H]2CC[C@H](CCCn3cc(C(C)C)nn3)CCN2)[C@H](C)Cl)[C@H](O)[C@H](O)[C@H]1O [Example 18′, 5-[3-(4-(2-Propyl)-[1,2,3]triazol-1-yl)-propyl]-azepane-2-carboxylic acid [2-chloro-1-(3,4,5-trihydroxy-6-methylsulfanyl-tetrahydro-pyran-2-yl)-propyl]-amide]	> 8	440	markedly superior	1 (≈ 1.82 µM)	4 (≈ 7.3 µM)	4 (≈ 7.3 µM)
